Tests used:
Format in all cases: in vivo
Spodoptera frugiperda = test: Pesticidal activity against Spodoptera frugiperda, leaf-dipping method; settings: counted 24, 48, 72 hours, time not given, read-out: mortality rate, Spodoptera frugiperda
Protocol: Cabbage (Daiya) leaves were cut into pieces with a diameter of 5.8 cm, dipped in the pesticide composition where the compound of Synthesis Example 2 was diluted (the solvent=distilled water+acetone 50,000 mg/L+Triton X-100 100 mg/L) for 30 seconds, and sufficiently shade-dried. Then, the shade-dried cabbage leaves were placed in a petri dish (8.8 cm in diameter) covered with filter paper and repeatedly inoculated 3-5 times with the second to the third instar larvae of Spodoptera frugiperda, 10 larvae per inoculation. In particular, the Spodoptera frugiperda larvae used were those which were provided by Chung Buk University (Korea) and bred indoors for multiple generations. Then, the Spodoptera frugiperda larvae were stored under the conditions of 16 hours of light and 8 hours of dark, 25±1° C. and 50-60% relative humidity, and the number of live Spodoptera frugiperda larvae was counted 24, 48, and 72 hours after the inoculation. Thereafter, the larvae mortality rate was calculated in the same manner as in Test Example 1 above.

Phaedon brassicae = test: Pesticidal activity against Phaedon brassicae, leaf-dipping method; settings: counted 24, 48, 72 hours, time not given, read-out: mortality rate, Phaedon brassicae
Protocol: Cabbage (Daiya) leaves were cut into pieces with a diameter of 5.8 cm, dipped in the pesticide composition where the compound of Synthesis Example 2 was diluted (the solvent=distilled water+acetone 50,000 mg/L+Triton X-100 100 mg/L) for 30 seconds, and sufficiently shade-dried. Then, the shade-dried cabbage leaves were is placed in a petri dish (8.8 cm in diameter) covered with filter paper and repeatedly inoculated 3-5 times with the larvae of Phaedon brassicae, 10 larvae per inoculation. In particular, the Phaedon brassicae larvae used were those which were bred in the Andong National University (Korea) for multiple generations.
After the inoculation, the Phaedon brassicae larvae were stored under the conditions of 16 hours of light and 8 hours of dark, 25±1° C. and 50-60% relative humidity, and the number of live Phaedon brassicae larvae was counted 24, 48, and 72 hours after the inoculation. Thereafter, the larvae mortality rate was calculated in the same manner as in Test Example 1 above.

Lymantria dispar = test: Pesticidal activity against Lymantria dispar, leaf-dipping method; settings: maple leaf-dipping, counted 24, 48, 72 hours, time not given, read-out: mortality rate, Lymantria dispar
Protocol: Maple leaves were dipped in the pesticide composition where the compound of Synthesis Example 2 was diluted (the solvent=distilled water+acetone 50,000 mg/L+Triton X-100 100 mg/L) for 30 seconds, and sufficiently shade-dried by placing them on aluminum foil. Then, in order to maintain the humidity of the shade-dried maple leaves, they were placed on a petri dish (9.0 cm in diameter) covered with a filter paper (9.0 cm in diameter) treated with distilled water, and repeatedly inoculated 4 times of five early third instar larvae of Lymantria dispar. In particular, Lymantria dispar larvae used were collected in Jukjang-myeon, Buk-gu, Pohang-si, Gyeongsangbuk-do, Korea. Then, Lymantria dispar larvae were stored under 16 hours of light: 8 hours of dark, 25±1° C., and 50-60% relative humidity, and the number of Lymantria dispar larvae was counted 24, 48, and 72 hours after inoculation. Thereafter, the larvae mortality rate was calculated in the same manner as in Test Example 1 above.

Grapholita molesta = test: Pesticidal activity against Grapholita molesta, spray method; settings: spray on apples, counted 24, 72, 192 hours, time not given, read-out: mortality rate, Grapholita molesta
Protocol: The pesticide composition where the compound of Synthesis Example 2 was diluted (the solvent=distilled water+acetone 50,000 mg/L+Triton X-100 100 mg/L) was directly sprayed on apples using a CO2 Sprayer® [a nozzle type: Teejet8002VS (a flat fan type), pressure: 800 psi), and then apples were collected 1 hour later, and Grapholita molesta larvae were repeatedly inoculated 5-6 times, 3 per apple. In particular, the Grapholita molesta larvae were collected in the R&D Center of Kyung Nong Co., Ltd. (Gyeongju, Korea), and they were used after acclimatization indoors for 24 hours. Then, the Grapholita molesta larvae were stored under the conditions of 16 hours of light and 8 hours of dark, 25±1° C. and relative humidity of 50-60%, and the number of live Grapholita molesta larvae was counted 24, 72, and 192 hours after the inoculation. Thereafter, the larvae mortality rate was calculated in the same manner as in Test Example 1 above.

Rhopobota naevana = test: Pesticidal activity against Rhopobota naevana, spray method; settings: spray on apple leaves, counted 24, 48, 72 hours, time not given, read-out: mortality rate, Rhopobota naevana
Protocol: Apple leaves were collected along with the stems, and the leaves of 3-4 base were cut into 5 cm×5 cm×5 cm pieces and placed in a tray oasis submerged in water. Then, the pesticide composition where the compound of Synthesis Example 2 was diluted (the solvent=distilled water+acetone 50,000 mg/L+Triton X-100 100 mg/L) was loaded into a 150 mL small sprayer and sprayed to the apple leaves, and 1 hour thereafter, the […] larvae were repeatedly inoculated 5-6 times, one per apple leaf. In particular, the Rhopobota naevana larvae were collected in the R&D Center of Kyung Nong Co., Ltd. (Gyeongju, Korea), and they were used after acclimatization indoors for 24 hours. Then, the Rhopobota naevana larvae were stored under the conditions of 16 hours of light and 8 hours of dark, 25±1° C. and relative humidity of 50-60%, and the number of live Rhopobota naevana larvae was counted 24, 48, and 72 hours after the inoculation. Thereafter, the larvae mortality rate was calculated in the same manner as in Test Example 1 above.

Plutella xylostella = test: Pesticidal activity against Plutella xylostella, leaf-dipping method; settings: 48 h, read-out: mortality rate, Plutella xylostella
Spodoptera litura = test: Pesticidal activity against Spodoptera litura, leaf-dipping method; settings: 48 h, read-out: mortality rate, Spodoptera litura

CON=CNC(=O)c1ccc(C2=NOC(c3cc(Cl)cc(Cl)c3)(C(F)(F)F)C2)cc1C (stereo not drawn) [Comparative Example 1, fluxametamide]
mortality at 0.1 ppm (Spodoptera frugiperda): 100%
mortality at 1 ppm (Spodoptera frugiperda): 100%
mortality at 10 ppm (Spodoptera frugiperda): 100%
mortality at 1 ppm (Phaedon brassicae): 100%
mortality at 3 ppm (Phaedon brassicae): 100%
mortality at 10 ppm (Phaedon brassicae): 100%
mortality at 0.01 ppm (Lymantria dispar): 5%
mortality at 0.1 ppm (Lymantria dispar): 95%
mortality at 10 ppm (Grapholita molesta): 85%
mortality at 0.1 ppm (Rhopobota naevana): 83%
mortality at 1 ppm (Rhopobota naevana): 100%
mortality at 0.1 ppm (Plutella xylostella): 100%
mortality at 1 ppm (Plutella xylostella): 100%
mortality at 10 ppm (Plutella xylostella): 100%
mortality at 0.1 ppm (Spodoptera litura): 90%
mortality at 1 ppm (Spodoptera litura): 100%
mortality at 10 ppm (Spodoptera litura): 100%

Cc1cc(C2=NOC(c3cc(Cl)cc(C(F)(F)F)c3)(C(F)(F)F)C2)ccc1C(=O)NC(=O)C1CC1 (racemic) [Synthesis Example 2]
mortality at 0.1 ppm (Spodoptera frugiperda): 100%
mortality at 1 ppm (Spodoptera frugiperda): 100%
mortality at 10 ppm (Spodoptera frugiperda): 100%
mortality at 1 ppm (Phaedon brassicae): 100%
mortality at 3 ppm (Phaedon brassicae): 100%
mortality at 10 ppm (Phaedon brassicae): 100%
mortality at 0.01 ppm (Lymantria dispar): 74%
mortality at 0.1 ppm (Lymantria dispar): 100%
mortality at 10 ppm (Grapholita molesta): 85%
mortality at 0.1 ppm (Rhopobota naevana): 100%
mortality at 1 ppm (Rhopobota naevana): 100%
mortality at 0.1 ppm (Plutella xylostella): 100%
mortality at 1 ppm (Plutella xylostella): 100%
mortality at 10 ppm (Plutella xylostella): 100%
mortality at 0.1 ppm (Spodoptera litura): 100%
mortality at 1 ppm (Spodoptera litura): 100%
mortality at 10 ppm (Spodoptera litura): 100%

CNC(=O)c1cc(Cl)cc(C)c1NC(=O)c1cc(Br)nn1-c1ncccc1Cl [Comparative Example 2, chlorantraniliprole]
mortality at 0.01 ppm (Lymantria dispar): 0%
mortality at 0.1 ppm (Lymantria dispar): 10%
mortality at 10 ppm (Grapholita molesta): 85%
mortality at 0.1 ppm (Rhopobota naevana): 100%
mortality at 1 ppm (Rhopobota naevana): 100%
mortality at 0.1 ppm (Plutella xylostella): 21%
mortality at 1 ppm (Plutella xylostella): 100%
mortality at 10 ppm (Plutella xylostella): 100%

Reference: patent US20250380697A1, “ISOXAZOLINE DERIVATIVE COMPOUND AND INSECTICIDAL COMPOSITION COMPRISING SAME” (KYUNG NONG CORPORATION, priority 2022, published 2025)
